Experimental data published in article PMC7525662, “Preclinical dosimetry models and the prediction of clinical doses of novel positron emission tomography radiotracers” (Scientific Reports, 2020).
Marks after values point to notes of the source that are not given here. Each block holds one compound with its values, some of them ahead of it.

Key:
Parameters in all cases: species or system Sprague–Dawley rats
Conditions in all cases: rat, in vivo
[1] = Residence times normalised to human organ masses, FBP reconstruction
Protocol: PET studies were reconstructed using filtered-back projection (FBP) and Mediso’s iterative Tera-Tomo 3D reconstruction algorithm with the following settings: 4 iterations, 6 subsets, full detector model, normal regularization, spike filter on, voxel size 0.4 mm and 400‒600 keV energy window. PET data were corrected for randoms, scatter and attenuation. Time-activity curves for each source organ, whole-body and remainder of the body were plotted. […] Residence times (τ) were determined for each radiotracer in source organs, whole-body and remaining (any activity assigned to the whole-body but not assigned to a source organ). Each preclinical source organ’s τ was determined by calculating the area under its respective time-activity curve (activity normalised to the percentage maximum injected dose as a function of time) using the trapezoid method. […] From each individual animal, eight dosimetry models were constructed from all possible combinations of image reconstruction method (FBP or iterative), τ (non-normalised or normalised to human organ masses), and sex of phantom (male or female). Supplementary table 1. Scaling (normalisation) factors applied to residence times of PET radiotracers in male Sprague-Dawley rats to predict human adult residence times. […] Stabin et al. 2006 ^4); WB: Whole Body.

[2] = OLINDA/EXM predicted clinical doses: adult male phantom, normalised τ, iterative
Protocol: (§1) PET studies were reconstructed using filtered-back projection (FBP) and Mediso’s iterative Tera-Tomo 3D reconstruction algorithm with the following settings: 4 iterations, 6 subsets, full detector model, normal regularization, spike filter on, voxel size 0.4 mm and 400‒600 keV energy window. PET data were corrected for randoms, scatter and attenuation. Time-activity curves for each source organ, whole-body and remainder of the body were plotted. […] Residence times (τ) were determined for each radiotracer in source organs, whole-body and remaining (any activity assigned to the whole-body but not assigned to a source organ). Each preclinical source organ’s τ was determined by calculating the area under its respective time-activity curve (activity normalised to the percentage maximum injected dose as a function of time) using the trapezoid method. […] From each individual animal, eight dosimetry models were constructed from all possible combinations of image reconstruction method (FBP or iterative), τ (non-normalised or normalised to human organ masses), and sex of phantom (male or female). Supplementary table 11. Predicted clinical absorbed organ doses and whole-body effective doses of PET radiotracers using normalised adult male source organ residence times from iterative reconstructions.

[3] = OLINDA/EXM predicted clinical doses: adult female phantom, normalised τ, iterative
Protocol: as §1, with “table 12.” for “table 11.”, “adult female” for “adult male”

[4] = Comparison of predicted doses across the eight dosimetry models and radiotracers
Protocol: Time-activity curves for each source organ, whole-body and remainder of the body were plotted. […] Residence times (τ) were determined for each radiotracer in source organs, whole-body and remaining (any activity assigned to the whole-body but not assigned to a source organ). Each preclinical source organ’s τ was determined by calculating the area under its respective time-activity curve (activity normalised to the percentage maximum injected dose as a function of time) using the trapezoid method. […] From each individual animal, eight dosimetry models were constructed from all possible combinations of image reconstruction method (FBP or iterative), τ (non-normalised or normalised to human organ masses), and sex of phantom (male or female). All graphs and statistical analyses were generated and performed in GraphPad Prism 5.01 (GraphPad Software Inc., California, USA). One-way ANOVA followed by a Dunnett’s multiple comparison post-hoc test with [^18F]FDG as the control was used to determine which novel radiotracers’ biodistribution and dosimetry differed from [^18F]FDG in the same organs. All statistical tests used α = 0.05 as the measure for statistical significance. Bland–Altman plots were calculated as previously described[33],[34].

Normalised Residence Time (h), Average: Remaining [1]: 1.98 h
Effective Dose [2]: 2.17E-02 mSv/MBq
Estimated Absorbed Dose of Organ, Adrenals [2]: 6.76E-03 mGy/MBq
Estimated Absorbed Dose of Organ, Brain [2]: 2.27E-03 mGy/MBq
Estimated Absorbed Dose of Organ, Breasts [2]: 4.34E-03 mGy/MBq
Estimated Absorbed Dose of Organ, Gallbladder Wall [2]: 7.11E-03 mGy/MBq
Estimated Absorbed Dose of Organ, Heart Wall [2]: 1.28E-02 mGy/MBq
Estimated Absorbed Dose of Organ, Kidneys [2]: 2.74E-02 ‡ mGy/MBq
Estimated Absorbed Dose of Organ, LLI Wall [2]: 5.51E-02 § mGy/MBq
Estimated Absorbed Dose of Organ, Liver [2]: 7.32E-03 mGy/MBq
Estimated Absorbed Dose of Organ, Lungs [2]: 6.59E-03 mGy/MBq
Estimated Absorbed Dose of Organ, Muscle [2]: 6.45E-03 mGy/MBq
Estimated Absorbed Dose of Organ, Osteogenic Cells [2]: 8.36E-03 mGy/MBq
Estimated Absorbed Dose of Organ, Pancreas [2]: 6.93E-03 mGy/MBq
Estimated Absorbed Dose of Organ, Red Marrow [2]: 6.11E-03 mGy/MBq
Estimated Absorbed Dose of Organ, Skin [2]: 4.44E-03 mGy/MBq
Estimated Absorbed Dose of Organ, Small Intestine [2]: 9.30E-03 mGy/MBq
Estimated Absorbed Dose of Organ, Spleen [2]: 6.39E-03 mGy/MBq
Estimated Absorbed Dose of Organ, Stomach Wall [2]: 6.44E-03 mGy/MBq
Estimated Absorbed Dose of Organ, Testes [2]: 8.41E-03 mGy/MBq
Estimated Absorbed Dose of Organ, Thymus [2]: 5.44E-03 mGy/MBq
Estimated Absorbed Dose of Organ, Thyroid [2]: 5.10E-03 mGy/MBq
Estimated Absorbed Dose of Organ, ULI Wall [2]: 8.07E-03 mGy/MBq
Estimated Absorbed Dose of Organ, Urinary Bladder Wall [2]: 1.75E-01 † mGy/MBq
Estimated Absorbed Dose, Total Body [2]: 6.69E-03 mGy/MBq
Effective Dose [3]: 8.33E-03 mSv/MBq
Estimated Absorbed Dose of Organ, Brain [3]: 8.66E-03 mGy/MBq
Estimated Absorbed Dose of Organ, Breasts [3]: 2.91E-03 mGy/MBq
Estimated Absorbed Dose of Organ, Gallbladder Wall [3]: 5.51E-03 mGy/MBq
Estimated Absorbed Dose of Organ, Heart Wall [3]: 1.03E-02 mGy/MBq
Estimated Absorbed Dose of Organ, Kidneys [3]: 1.53E-02 mGy/MBq
Estimated Absorbed Dose of Organ, LLI Wall [3]: 8.45E-03 mGy/MBq
Estimated Absorbed Dose of Organ, Liver [3]: 3.23E-02 § mGy/MBq
Estimated Absorbed Dose of Organ, Lungs [3]: 9.20E-03 mGy/MBq
Estimated Absorbed Dose of Organ, Muscle [3]: 8.21E-03 mGy/MBq
Estimated Absorbed Dose of Organ, Osteogenic Cells [3]: 7.60E-03 mGy/MBq
Estimated Absorbed Dose of Organ, Ovaries [3]: 7.96E-03 mGy/MBq
Estimated Absorbed Dose of Organ, Pancreas [3]: 1.68E-02 mGy/MBq
Estimated Absorbed Dose of Organ, Red Marrow [3]: 8.65E-03 mGy/MBq
Estimated Absorbed Dose of Organ, Skin [3]: 1.09E-02 mGy/MBq
Estimated Absorbed Dose of Organ, Small Intestine [3]: 6.42E-02 ‡ mGy/MBq
Estimated Absorbed Dose of Organ, Spleen [3]: 5.48E-03 mGy/MBq
Estimated Absorbed Dose of Organ, Stomach Wall [3]: 1.13E-02 mGy/MBq
Estimated Absorbed Dose of Organ, Thymus [3]: 8.11E-03 mGy/MBq
Estimated Absorbed Dose of Organ, Thyroid [3]: 6.90E-03 mGy/MBq
Estimated Absorbed Dose of Organ, ULI Wall [3]: 8.02E-03 mGy/MBq
Estimated Absorbed Dose of Organ, Urinary Bladder Wall [3]: 5.97E-03 mGy/MBq
Estimated Absorbed Dose of Organ, Uterus [3]: 2.38E-01 † mGy/MBq
Estimated Absorbed Dose, Total Body [3]: 2.06E-02 mGy/MBq
organs predicted to receive the highest absorbed doses (ranking) [4]: urinary bladder > LLI wall > kidneys
Compound: NOTA-RGDfK [existing Al^18F-labelled NOTA-RGDfK peptide PET radiotracer; precursor NOTA-RGDfK (1)]

Normalised Residence Time (h), Average: Remaining [1]: 2.12 h
Effective Dose [2]: 2.46E-02 mSv/MBq
Estimated Absorbed Dose of Organ, Adrenals [2]: 9.55E-03 mGy/MBq
Estimated Absorbed Dose of Organ, Brain [2]: 1.47E-02 mGy/MBq
Estimated Absorbed Dose of Organ, Breasts [2]: 6.86E-03 mGy/MBq
Estimated Absorbed Dose of Organ, Gallbladder Wall [2]: 9.38E-03 mGy/MBq
Estimated Absorbed Dose of Organ, Heart Wall [2]: 8.18E-02 ‡ mGy/MBq
Estimated Absorbed Dose of Organ, Kidneys [2]: 2.30E-02 mGy/MBq
Estimated Absorbed Dose of Organ, LLI Wall [2]: 7.18E-02 § mGy/MBq
Estimated Absorbed Dose of Organ, Liver [2]: 9.11E-03 mGy/MBq
Estimated Absorbed Dose of Organ, Lungs [2]: 1.46E-02 mGy/MBq
Estimated Absorbed Dose of Organ, Muscle [2]: 8.37E-03 mGy/MBq
Estimated Absorbed Dose of Organ, Osteogenic Cells [2]: 1.16E-02 mGy/MBq
Estimated Absorbed Dose of Organ, Pancreas [2]: 1.00E-02 mGy/MBq
Estimated Absorbed Dose of Organ, Red Marrow [2]: 8.31E-03 mGy/MBq
Estimated Absorbed Dose of Organ, Skin [2]: 5.99E-03 mGy/MBq
Estimated Absorbed Dose of Organ, Small Intestine [2]: 1.15E-02 mGy/MBq
Estimated Absorbed Dose of Organ, Spleen [2]: 8.72E-03 mGy/MBq
Estimated Absorbed Dose of Organ, Stomach Wall [2]: 9.21E-03 mGy/MBq
Estimated Absorbed Dose of Organ, Testes [2]: 9.57E-03 mGy/MBq
Estimated Absorbed Dose of Organ, Thymus [2]: 9.60E-03 mGy/MBq
Estimated Absorbed Dose of Organ, Thyroid [2]: 7.39E-03 mGy/MBq
Estimated Absorbed Dose of Organ, ULI Wall [2]: 1.01E-02 mGy/MBq
Estimated Absorbed Dose of Organ, Urinary Bladder Wall [2]: 1.43E-01 † mGy/MBq
Estimated Absorbed Dose, Total Body [2]: 9.30E-03 mGy/MBq
Effective Dose [3]: 1.15E-02 mSv/MBq
Estimated Absorbed Dose of Organ, Brain [3]: 1.19E-02 mGy/MBq
Estimated Absorbed Dose of Organ, Breasts [3]: 1.84E-02 mGy/MBq
Estimated Absorbed Dose of Organ, Gallbladder Wall [3]: 8.62E-03 mGy/MBq
Estimated Absorbed Dose of Organ, Heart Wall [3]: 1.28E-02 mGy/MBq
Estimated Absorbed Dose of Organ, Kidneys [3]: 9.59E-02 ‡ mGy/MBq
Estimated Absorbed Dose of Organ, LLI Wall [3]: 1.11E-02 mGy/MBq
Estimated Absorbed Dose of Organ, Liver [3]: 2.72E-02 mGy/MBq
Estimated Absorbed Dose of Organ, Lungs [3]: 1.15E-02 mGy/MBq
Estimated Absorbed Dose of Organ, Muscle [3]: 1.79E-02 mGy/MBq
Estimated Absorbed Dose of Organ, Osteogenic Cells [3]: 1.02E-02 mGy/MBq
Estimated Absorbed Dose of Organ, Ovaries [3]: 1.03E-02 mGy/MBq
Estimated Absorbed Dose of Organ, Pancreas [3]: 1.95E-02 mGy/MBq
Estimated Absorbed Dose of Organ, Red Marrow [3]: 1.23E-02 mGy/MBq
Estimated Absorbed Dose of Organ, Skin [3]: 1.51E-02 mGy/MBq
Estimated Absorbed Dose of Organ, Small Intestine [3]: 8.33E-02 § mGy/MBq
Estimated Absorbed Dose of Organ, Spleen [3]: 7.40E-03 mGy/MBq
Estimated Absorbed Dose of Organ, Stomach Wall [3]: 1.38E-02 mGy/MBq
Estimated Absorbed Dose of Organ, Thymus [3]: 1.10E-02 mGy/MBq
Estimated Absorbed Dose of Organ, Thyroid [3]: 1.16E-02 mGy/MBq
Estimated Absorbed Dose of Organ, ULI Wall [3]: 1.15E-02 mGy/MBq
Estimated Absorbed Dose of Organ, Urinary Bladder Wall [3]: 8.48E-03 mGy/MBq
Estimated Absorbed Dose of Organ, Uterus [3]: 1.93E-01 † mGy/MBq
Estimated Absorbed Dose, Total Body [3]: 2.12E-02 mGy/MBq
Compound: O=C[C@H]([18F])[C@@H](O)[C@H](O)[C@H](O)CO [FDG, 2-deoxy-2-[^18F]fluoro-D-glucose]
organs predicted to receive the highest absorbed doses (ranking) [4]: the urinary bladder, followed by the lower large intestinal (LLI) wall and kidneys
